Experimental data as given in ChEMBL document CHEMBL4706491, “Discovery of novel N-sulfonamide-tetrahydroquinolines as potent retinoic acid receptor-related orphan receptor γt inverse agonists for the treatment of autoimmune diseases” (Eur J Med Chem, 2020).

Key:
[1] = target: T1, Nuclear receptor ROR-gamma (Homo sapiens, UniProt P51449)
T1 sequence (P51449 whole entry): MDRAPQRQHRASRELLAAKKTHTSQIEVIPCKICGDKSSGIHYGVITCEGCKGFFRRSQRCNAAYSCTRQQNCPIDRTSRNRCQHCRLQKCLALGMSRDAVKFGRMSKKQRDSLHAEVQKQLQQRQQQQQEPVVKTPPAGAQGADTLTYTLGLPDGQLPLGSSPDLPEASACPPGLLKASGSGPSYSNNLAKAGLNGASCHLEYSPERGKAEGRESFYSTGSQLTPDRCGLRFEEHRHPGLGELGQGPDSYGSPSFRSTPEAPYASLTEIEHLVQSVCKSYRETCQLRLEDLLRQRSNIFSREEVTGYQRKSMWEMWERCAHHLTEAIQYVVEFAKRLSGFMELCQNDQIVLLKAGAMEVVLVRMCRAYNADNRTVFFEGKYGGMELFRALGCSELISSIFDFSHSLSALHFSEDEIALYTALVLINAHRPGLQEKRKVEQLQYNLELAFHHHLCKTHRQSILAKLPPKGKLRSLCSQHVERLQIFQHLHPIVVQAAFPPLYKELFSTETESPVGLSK

[2] = Half life in CD-1 mouse liver microsomes at 1 uM measured up to 60 mins in presence of NADPH by LC-MS/MS analysis
[3] = in vitro; details: CD-1, mouse, liver microsomes
[4] = in vitro; details: CD-1, mouse, liver
[5] = target: T1, Nuclear receptor ROR-gamma; test: Agonist activity at APC-labeled RORgammat LBD (unknown origin) incubated for 1 hr in presence of europium-labeled co-activator SRC1 by FRET assay

SMILES	XC50 [1] [nM]	also measured
CC(=O)N1CCN(c2ccc3c(c2)CCCN3S(=O)(=O)N(C)CCCc2ccccc2)CC1	7230	–
CC(=O)N1CCN(c2ccc(CN(C3CCC3)S(=O)(=O)Cc3ccccc3)cc2)CC1	–	half-life at 1 h, 1 µM [2]: 2.3 min; microsomal CLint at 1 h, 1 µM [3]: 612 µL/min/mg; CLint scaled at 1 h, 1 µM [4]: 2420 mL/min/kg
CC(=O)N1CCN(c2ccc3c(c2)CCCN3S(=O)(=O)c2ccccc2)CC1	–	EC50 [5]: 4840 nM
CC(=O)N1CCN(c2ccc3c(c2)CCCN3S(=O)(=O)CCc2ccccc2)CC1	906	–
CC(=O)N1CCN(c2ccc3c(c2)CCCN3S(=O)(=O)N(C)Cc2ccc(C(F)(F)F)cc2)CC1	1550	–

Now from value to compound, other results behind:

XC50 [1] [nM]	SMILES	also measured
768	CC(=O)N1CCN(c2ccc3c(c2)CCCN3S(=O)(=O)N(C)Cc2cccc(C)c2)CC1	–
910	CC(=O)N1CCN(c2ccc3c(c2)CCCN3S(=O)(=O)N(C)CCc2ccccc2)CC1	–
86	CC(=O)N1CCN(c2ccc3c(c2)CCCN3S(=O)(=O)N(C)Cc2ccccc2Cl)CC1	–
143	CC(=O)N1CCN(c2ccc3c(c2)CCCN3S(=O)(=O)N(C)Cc2ccccc2C)CC1	–
324	CC(=O)N1CCN(c2ccc3c(c2)CCCN3S(=O)(=O)N(C)Cc2cccc(F)c2)CC1	–
104	CC(=O)N1CCN(c2ccc3c(c2)CCCN3S(=O)(=O)N(C)Cc2cccc(Cl)c2)CC1	–
